Measured values: patent US20240252456A1, “ORAL COMPOSITION, SKIN COSMETIC AND HAIR COSMETIC” (MARUZEN PHARMACEUTICALS CO., LTD., priority 2021, published 2024)

Tested on: AQP3 mRNA
Assay: Aquaporin 3 (AQP3) mRNA expression promotive action test
Assay type: cell-based, human
Conditions: 100 μmol/L; NHEK, 24 hours, corrected with GAPDH
Procedure: Normal human neonatal epidermal keratinocytes (NHEK) were precultured using normal human epidermal keratinocyte growth medium (KGM), and the cells were collected by a trypsin treatment. The collected cells were diluted with KGM to a cell density of 15×10^4 cells/mL, then seeded with 2 mL portions in a 6-well plate (30×10^4 cells/well), and cultured overnight under conditions of 37° C. and 5% CO2. After culturing, the medium was replaced with normal human epidermal keratinocyte basal medium (KBM, the above KGM without addition of growth additives (hEGF, BPE, insulin, antibacterial agents, hydrocortisone)), and culturing was further performed for 24 hours.
After culturing for 24 hours, the medium was removed, and 2 mL of the test sample (Sample 1, see Table 17 below for final concentration) dissolved in KBM was added to each well, and culturing was performed under conditions of 37° C. and 5% CO2 for 24 hours. As a control, culturing was performed in the same manner using KBM to which no sample was added. After culturing, the medium was removed, total RNA was extracted using ISOGEN II (available from NIPPON GENE CO., LTD.), each RNA amount was measured using a spectrophotometer, and the total RNA was prepared so as to be 150 ng/μL.
For AQP3 and GAPDH as an internal standard, the expression levels of mRNA were measured using the above total RNA as a template. […]

O=C(O)CCc1ccc(O)c(O)c1 [Sample 1, 3,4-Dihydroxyhydrocinnamic acid]
AQP3 mRNA expression promotion rate: 207.8%
